# Results as given in patent US20190070163A1, “ANTITUMOR AGENT” (TOCHIGI INSTITUTE OF CLINICAL PATHOLOGY, priority 2013, published 2019).
# System: spontaneously developed mammary gland tumors (adenocarcinoma and adenoma)
# Experiment: Therapeutic effect on tumor-bearing rats; light and electron microscopy of removed tumor tissues
# Format: in vivo, Sprague-Dawley rats
# Conditions: for apoptosis of smooth muscle cells in the tumor site: electron micrographs FIGS. 12 to 15; for degeneration of axons of peripheral nerve cells in the tumor site / degeneration of myelin sheaths of peripheral nerve cells in the tumor site: electron micrographs FIGS. 16 to 19; for stage of apoptosis of endothelial cells (irregular condensation and fragmentation of nuclei): staging per Ihara et al. 1998; for apoptosis in the tumor cells / inhibitory effect on the development and the growth of the tumor cells: tumor-bearing rats, oral daily (montelukast sodium 0.16, zafirlukast 1.33, pranlukast hydrate 7.5, zileuton 34.3 mg/kg), vs untreated
# Source text: Sprague-Dawley rats which had spontaneously developed a tumor during breeding (hereinafter referred to as tumor-bearing rats) were purchased from Charles River Japan, Inc., and used for experiments. Tumors observed were all mammary gland tumors (adenocarcinoma and adenoma). All of these were spontaneous tumors, and the rats were cancer-bearing animals having various conditions of tumorigenesis including carcinogenic factors in mammals including human.
# Under ether anesthetization, tumor tissues were removed from tumor-bearing rats. The removed tumors were fixed, and thereafter samples for light microscopy (hematoxylin-eosin staining) and samples for electron microscopy (uranium-lead double staining) were prepared and observed.
# To tumor-bearing rats, a leukotriene inhibitor containing montelukast sodium as an active ingredient (leukotriene receptor antagonist; trade name “Singulair Tablets”; manufactured by MSD K. K.) was orally administered for up to 7 days at a daily dose of 0.16 mg/kg body weight in terms of montelukast sodium. On Day 3 and Day 7, tumor tissues were removed under ether anesthetization. In the same manner as in Comparative Example 1, the removed tumors were fixed, and thereafter samples for light microscopy (hematoxylin-eosin staining) and samples for electron microscopy (uranium-lead double staining) were prepared and observed.
# To tumor-bearing rats, a leukotriene inhibitor containing zafirlukast as an active ingredient (leukotriene receptor antagonist; trade name “Accolate”; manufactured by AstraZeneca K. K.) was orally administered for up to 7 days at a daily dose of 1.33 mg/kg body weight in terms of zafirlukast. On Day 3 and Day 7, tumor tissues were removed under ether anesthetization. In the same manner as in Comparative Example 1, the removed tumors were fixed, and thereafter samples for light microscopy (hematoxylin-eosin staining) and samples for electron microscopy (uranium-lead double staining) were prepared and observed.
# To tumor-bearing rats, a leukotriene inhibitor containing pranlukast hydrate as an active ingredient (leukotriene receptor antagonist; trade name “Onon”; manufactured by Ono Pharmaceutical Co., Ltd.) was orally administered for up to 7 days at a daily dose of 7.5 mg/kg body weight in terms of pranlukast hydrate. On Day 3 and Day 7, tumor tissues were removed under ether anesthetization. In the same manner as in Comparative Example 1, the removed tumors were fixed, and thereafter samples for light microscopy (hematoxylin-eosin staining) and samples for electron microscopy (uranium-lead double staining) were prepared and observed.
# To tumor-bearing rats, a leukotriene inhibitor containing zileuton as an active ingredient (leukotriene biosynthesis inhibitor; trade name “ZYFLO”; manufactured by Abbott Laboratories) was orally administered for up to 7 days at a daily dose of 34.3 mg/kg body weight in terms of zileuton. On Day 3 and Day 7, tumor tissues were removed under ether anesthetization. In the same manner as in Comparative Example 1, the removed tumors were fixed, and thereafter samples for light microscopy (hematoxylin-eosin staining) and samples for electron microscopy (uranium-lead double staining) were prepared and observed.
# [1] = oral, dosing period 3 days, electron micrographs
structure (smiles),measurement,setting,value
COc1cc(C(=O)NS(=O)(=O)c2ccccc2C)ccc1Cc1cn(C)c2ccc(NC(=O)OC3CCCC3)cc12 [zafirlukast],apoptosis of fibroblasts in tumor tissue,[1],apoptosis of fibroblast
same,apoptosis of smooth muscle cells in the tumor site,"oral, dosing period 3 days",apoptosis of a smooth muscle cell
same,degeneration of axons of peripheral nerve cells in the tumor site,"oral, dosing period 3 days",vacuolation and degeneration of an axon
same,degeneration of myelin sheaths of peripheral nerve cells in the tumor site,"oral, dosing period 3 days",degeneration of a myelin sheath
same,stage of apoptosis of endothelial cells (irregular condensation and fragmentation of nuclei),[1],Stage II to III
same,apoptosis in the tumor cells,,apoptosis was already induced on as early as Day 3
same,inhibitory effect on the development and the growth of the tumor cells,,remarkable inhibitory effect
CC(c1cc2ccccc2s1)N(O)C(N)=O (centres unmarked) [zileuton],effect to inhibit stromal hyperplasia,"oral, dosing period 3 days",an effect to inhibit stromal hyperplasia was also seen
same,apoptosis of smooth muscle cells in the tumor site,"oral, dosing period 3 days",apoptosis of a smooth muscle cell
same,degeneration of axons of peripheral nerve cells in the tumor site,"oral, dosing period 3 days",vacuolation and degeneration of an axon
same,degeneration of myelin sheaths of peripheral nerve cells in the tumor site,"oral, dosing period 3 days",degeneration of a myelin sheath
same,stage of apoptosis of endothelial cells (irregular condensation and fragmentation of nuclei),[1],Stage II to III
same,apoptosis in the tumor cells,,apoptosis was already induced on as early as Day 3
same,inhibitory effect on the development and the growth of the tumor cells,,remarkable inhibitory effect
